One data set concerns human dermal fibroblasts. As to the kind of experiment: Cell motility, in vitro wound healing assay. The settings on record: for movement of fibroblasts: in vitro wound healing assay, compared to no gel.
Data set [1] relates to human keratinocytes (HaCaT cells). The data set can be described thus: Cell motility, in vitro wound healing assay. The settings on record: compared to no gel.

Consider `O=[N+]([O-])[O-].[Ag+]` [silver nitrate], for which the dead cells in the data set with human fibroblasts (human fibroblasts, 3 μg/ml of silver nitrate in medium, or polymer cured with 3 μg/ml silver) came to 10%.

Take `[Ag]` [silver]: in the data set with human fibroblasts, the “concentrations of silver preferred for cell proliferation” value is reported as “lower than 15 μg/ml” and the fibroblasts proliferation entry is given as “greatly inhibited”. Moreover, the “impact on cell migration or proliferation” value in the data set with human dermal fibroblasts (silver per se) is “no adverse impact”.

As to `OC[C@H]1O[C@@H](O[C@H]2[C@H](O)[C@@H](O)C(O)O[C@@H]2CO)[C@H](O)[C@@H](O)[C@H]1O` (some centres unmarked) [lactose], the movement of fibroblasts entry with human dermal fibroblasts is on record as “limited cell movement”. In data set [1], the movement of keratinocytes result is “limited cell movement”.

With `COC(=O)C(CCCCN=C=O)N=C=O` (centres unmarked) [LDI, Lysine diisocyanate methyl ester], in the data set with human dermal fibroblasts, the movement of fibroblasts entry is reported as “limited cell movement”. The movement of keratinocytes result in data set [1] was “limited cell movement”.
